Measured values as given in paper PMC11012124, “Synthesis of Novel Triazine-Based Chalcones and 8,9-dihydro-7H-pyrimido[4,5-b][1,4]diazepines as Potential Leads in the Search of Anticancer, Antibacterial and Antifungal Agents” (International Journal of Molecular Sciences, 2024).

Experiments:
MALME-3M = test: cells; conditions: Homo sapiens, 48 h; for CC50: read-out: LC50
HCT-15 = test: cells; conditions: Homo sapiens, HCT-15, 48 h; for CC50: read-out: LC50
RPMI-8226 = test: cells; conditions: Homo sapiens, RPMI-8226, 48 h; for CC50: read-out: LC50
SF-268 = test: cells; conditions: Homo sapiens, SF-268, 48 h; for CC50: read-out: LC50
EKVX = test: cells; conditions: Homo sapiens, 48 h; for CC50: read-out: LC50
HL-60(TB) = test: cells; conditions: Homo sapiens, HL-60, 48 h; for CC50: read-out: LC50
OVCAR-4 = test: cells; conditions: Homo sapiens, OVCAR-4, 48 h; for CC50: read-out: LC50
SNB-19 = test: cells; conditions: Homo sapiens, SNB-19, 48 h; for CC50: read-out: LC50
CCRF-CEM = test: cells; conditions: Homo sapiens, 48 h; for CC50: read-out: LC50
MDA-MB-435 = test: cells; conditions: Homo sapiens, MDA-MB-435, 48 h; for CC50: read-out: LC50
NCI-H23 = test: cells; conditions: Homo sapiens, NCI-H23, 48 h; for CC50: read-out: LC50
KM12 = test: cells; conditions: Homo sapiens, KM12, 48 h; for CC50: read-out: LC50
A549/ATCC = test: cells; conditions: Homo sapiens, A549, 48 h; for CC50: read-out: LC50
UACC-257 = test: cells; conditions: Homo sapiens, UACC-257, 48 h; for CC50: read-out: LC50
OVCAR-8 = test: cells; conditions: Homo sapiens, OVCAR-8, 48 h; for CC50: read-out: LC50
786-0 = test: cells; conditions: Homo sapiens, 786-0, 48 h; for CC50: read-out: LC50
COLO 205 = test: cells; conditions: Homo sapiens, COLO 205, 48 h; for CC50: read-out: LC50
HOP-62 = test: cells; conditions: Homo sapiens, HOP-62, 48 h; for CC50: read-out: LC50
SK-MEL-5 = test: cells; conditions: Homo sapiens, SK-MEL-5, 48 h; for CC50: read-out: LC50
SK-MEL-28 = test: cells; conditions: Homo sapiens, SK-MEL-28, 48 h; for CC50: read-out: LC50
UO-31 = test: cells; conditions: Homo sapiens, UO-31, 48 h; for CC50: read-out: LC50
HCT-116 = test: cells; conditions: Homo sapiens, HCT-116, 48 h; for CC50: read-out: LC50
NCI-H322M = test: cells; conditions: Homo sapiens, 48 h; for CC50: read-out: LC50
U251 = test: cells; conditions: Homo sapiens, U-251, 48 h; for GI50: U251, 48 h; for CC50: read-out: LC50
OVCAR-5 = test: cells; conditions: Homo sapiens, OVCAR-5, 48 h; for CC50: read-out: LC50
NCI-H460 = test: cells; conditions: Homo sapiens, NCI-H460, 48 h; for CC50: read-out: LC50
60 cancer cell lines = test: NCI-60 one-dose screen (10 μM); type: cell-based; conditions: Homo sapiens; one dose of 10 μM, mean over 60 cancer cell lines; read-out: Mean Growth Percent (MGP)
Excerpt: Additionally, the mean of the growth percentages (MGP) of each compound against all the 60 cancer cell lines is also reported, which is used as one of the selection criteria to continue with tests at five concentration doses.

SW-620 = test: cells; conditions: Homo sapiens, SW-620, 48 h; for CC50: read-out: LC50
IGROV1 = test: cells; conditions: Homo sapiens, IGROV-1, 48 h; for CC50: read-out: LC50
BT-549 = test: cells; conditions: Homo sapiens, BT-549, 48 h; for CC50: read-out: LC50
NCI-H226 = test: cells; conditions: Homo sapiens, NCI-H226, 48 h; for CC50: read-out: LC50
SK-MEL-2 = test: cells; conditions: Homo sapiens, SK-MEL-2, 48 h; for CC50: read-out: LC50
SF-295 = test: cells; conditions: Homo sapiens, SF-295, 48 h; for CC50: read-out: LC50
SN12C = test: cells; conditions: Homo sapiens, 48 h; for CC50: read-out: LC50
M14 = test: cells; conditions: Homo sapiens, M14, 48 h; for CC50: read-out: LC50
ACHN = test: cells; conditions: Homo sapiens, 48 h; for CC50: read-out: LC50

CN(C)c1nc(NCCNS(=O)(=O)c2ccc(C(=O)/C=C/c3ccc(F)cc3)cc2)nc(N2CCOCC2)n1 [23f]
GI50 (MALME-3M): 14.6 µM
CC50 (MALME-3M): 54.4 µM
GI50 (HCT-15): 2150 nM
CC50 (HCT-15): 13.7 µM
GI50 (RPMI-8226): 1910 nM
CC50 (RPMI-8226): > 100 µM
GI50 (SF-268): 15 µM
CC50 (SF-268): 94 µM
GI50 (EKVX): 14.4 µM
CC50 (EKVX): 53.8 µM
GI50 (HL-60(TB)): 14.7 µM
CC50 (HL-60(TB)): > 100 µM
GI50 (OVCAR-4): 11.9 µM
CC50 (OVCAR-4): 51.1 µM
GI50 (SNB-19): 13.4 µM
CC50 (SNB-19): 52.1 µM
GI50 (CCRF-CEM): 6.58 µM
CC50 (CCRF-CEM): > 100 µM
GI50 (MDA-MB-435): 11.6 µM
CC50 (MDA-MB-435): 51.9 µM
GI50 (NCI-H23): 14.6 µM
CC50 (NCI-H23): 54.3 µM
GI50 (KM12): 13.4 µM
CC50 (KM12): 70.3 µM
GI50 (A549/ATCC): 13.7 µM
CC50 (A549/ATCC): 56.8 µM
GI50 (UACC-257): 15.5 µM
CC50 (UACC-257): 54.9 µM
GI50 (OVCAR-8): 14.7 µM
CC50 (OVCAR-8): 54 µM
GI50 (786-0): 14.5 µM
CC50 (786-0): 57 µM
GI50 (COLO 205): 14.6 µM
CC50 (COLO 205): 62.4 µM
GI50 (HOP-62): 16.1 µM
CC50 (HOP-62): 61.8 µM
GI50 (SK-MEL-5): 15.7 µM
CC50 (SK-MEL-5): 54.4 µM
GI50 (SK-MEL-28): 14.9 µM
CC50 (SK-MEL-28): 53.4 µM
GI50 (UO-31): 11 µM
CC50 (UO-31): 47.9 µM
GI50 (HCT-116): 2290 nM
CC50 (HCT-116): 16.8 µM
GI50 (NCI-H322M): 13.2 µM
CC50 (NCI-H322M): 50.9 µM
GI50 (U251): 4.74 µM
CC50 (U251): 41.5 µM
GI50 (OVCAR-5): 13.6 µM
CC50 (OVCAR-5): 52.6 µM
GI50 (NCI-H460): 15.7 µM
CC50 (NCI-H460): 69.4 µM
activity at 10 µM (60 cancer cell lines): 27.6%
GI50 (SW-620): 3.38 µM
CC50 (SW-620): 40.8 µM
GI50 (IGROV1): 2270 nM
CC50 (IGROV1): 25.4 µM
GI50 (BT-549): 15.1 µM
CC50 (BT-549): 56.7 µM
GI50 (NCI-H226): 12.3 µM
CC50 (NCI-H226): 64.7 µM
GI50 (SK-MEL-2): 13.7 µM
CC50 (SK-MEL-2): 52.7 µM
GI50 (SF-295): 11.3 µM
CC50 (SF-295): 50.1 µM
GI50 (SN12C): 12 µM
CC50 (SN12C): 50 µM
GI50 (M14): 15 µM
CC50 (M14): 62.2 µM
GI50 (ACHN): 13.1 µM
CC50 (ACHN): 51.4 µM

CN(C)c1nc(NCCNS(=O)(=O)c2ccc(C(=O)/C=C/c3ccc(C(F)(F)F)cc3)cc2)nc(N2CCOCC2)n1 [23g]
GI50 (MALME-3M): 14.4 µM
CC50 (MALME-3M): 53 µM
GI50 (HCT-15): 1860 nM
CC50 (HCT-15): 7.07 µM
GI50 (RPMI-8226): 1770 nM
CC50 (RPMI-8226): > 100 µM
GI50 (SF-268): 16.3 µM
CC50 (SF-268): 87.9 µM
GI50 (EKVX): 14.3 µM
CC50 (EKVX): 52.5 µM
GI50 (HL-60(TB)): 5.12 µM
CC50 (HL-60(TB)): > 100 µM
GI50 (OVCAR-4): 14.8 µM
CC50 (OVCAR-4): 56.5 µM
GI50 (SNB-19): 13.5 µM
CC50 (SNB-19): 51.3 µM
GI50 (CCRF-CEM): 3.2 µM
CC50 (CCRF-CEM): > 100 µM
GI50 (MDA-MB-435): 10.3 µM
CC50 (MDA-MB-435): 51.1 µM
GI50 (NCI-H23): 13 µM
CC50 (NCI-H23): 52.6 µM
GI50 (KM12): 8.95 µM
CC50 (KM12): 68.3 µM
GI50 (A549/ATCC): 13.8 µM
CC50 (A549/ATCC): 62.3 µM
GI50 (UACC-257): 15.3 µM
CC50 (UACC-257): 56.5 µM
GI50 (OVCAR-8): 14.4 µM
CC50 (OVCAR-8): 54.9 µM
GI50 (786-0): 14.5 µM
CC50 (786-0): 54.9 µM
GI50 (COLO 205): 15 µM
CC50 (COLO 205): 69.8 µM
GI50 (HOP-62): 17 µM
CC50 (HOP-62): 61.3 µM
GI50 (SK-MEL-5): 15.8 µM
CC50 (SK-MEL-5): 54.9 µM
GI50 (SK-MEL-28): 14.4 µM
CC50 (SK-MEL-28): 52.6 µM
GI50 (UO-31): 11.9 µM
CC50 (UO-31): 49.2 µM
GI50 (HCT-116): 3190 nM
CC50 (HCT-116): 33.5 µM
GI50 (NCI-H322M): 14.2 µM
CC50 (NCI-H322M): 52.1 µM
GI50 (U251): 2.95 µM
CC50 (U251): 40.7 µM
GI50 (OVCAR-5): 14.5 µM
CC50 (OVCAR-5): 53 µM
GI50 (NCI-H460): 16.1 µM
CC50 (NCI-H460): 65.6 µM
activity at 10 µM (60 cancer cell lines): -14.8%
GI50 (SW-620): 3.3 µM
CC50 (SW-620): 36.5 µM
GI50 (IGROV1): 1770 nM
CC50 (IGROV1): 6.97 µM
GI50 (BT-549): 15.6 µM
CC50 (BT-549): 54.9 µM
GI50 (NCI-H226): 16.1 µM
CC50 (NCI-H226): 78.9 µM
GI50 (SK-MEL-2): 16.3 µM
CC50 (SK-MEL-2): 56.7 µM
GI50 (SF-295): 8.11 µM
CC50 (SF-295): 45.4 µM
GI50 (SN12C): 12.5 µM
CC50 (SN12C): 50 µM
GI50 (M14): 9.83 µM
CC50 (M14): 49.5 µM
GI50 (ACHN): 8.6 µM
CC50 (ACHN): 45.5 µM
